As usually defined, the IC50 is the concentration at which inhibition is half-maximal.

The source of these data is US10273267B2, “Beta-hairpin peptidomimetics as selective elastase inhibitors” (POLYPHOR AG, priority 2013, dated 2019).

*1 amine or outer side, *2 acyl side, *3 side chain or, on linkers, in order; H or OH if unused. Where a SMILES comes first, the peptide text is derived from it. [ ]: non-standard residue; d: D form. X3 = O=C(CC[C@H](Cc1ccc(O)cc1)N[*:1])[*:2]; X2 = C[C@@H](O)[C@@H](CCC(=O)[*:2])N[*:1]; Oic = O=C(O)[C@@H]1C[C@@H]2CCCC[C@@H]2N1; Gly(octyl) = CCCCCCCC[C@H](N)C(=O)O; N(CH2CH2COOH)Gly = O=C(O)CCNCC(=O)O; Dab = NCC[C@H](N)C(=O)O; Dap = NC[C@H](N)C(=O)O

Holding throughout (format): biochemical
For assay [1], the target named is T1, porcine pancreatic elastase (Sus scrofa, UniProt P00772).
T1 construct: purchased Sigma, USA
The assay is described as follows: Inhibition of porcine pancreatic elastase (hydrolysis of MeOSuc-AAA-pNA). Particulars: for hNE/PPE selectivity: ratio of PPE IC50 to hNE IC50; for IC50: substrate MeOSuc-AAA-pNA 1 mM, enzyme 15 nM, 37° C., pH8, read-out: Porcine pancreatic elastase (PPE) IC50. The protocol:
2.3 Inhibition of Porcine Pancreatic Elastase
The ability of the peptides of the invention to inhibit the hydrolysis activity of porcine pancreatic elastase (Sigma, USA) using the synthetic tripeptidic substrate MeOSuc-AAA-pNA (Bachem, Switzerland) was determined as follows:
The above substrate (1 mM) and […] porcine pancreatic elastase (15 nM) were incubated at 37° C. with serial dilutions of the peptides (0.5% DMSO final) in assay buffer (50 mM Tris, pH8, 100 mM NaCl, 0.01% Tween20). The release of pNA was followed by monitoring the change in absorbance at 405 nm for 30 minutes. Control assays with the same assay set-up as above, but without peptide, ran linearly. The dose-response data were fitted to the 4-parameter Hill equation providing the IC50 value using Graphpad (Prism 5).

The target in assay [2] is T2, human neutrophil elastase (Homo sapiens, UniProt P08246).
T2 construct: purchased Serva Electrophoresis, Germany
T2 sequence (P08246 30-267): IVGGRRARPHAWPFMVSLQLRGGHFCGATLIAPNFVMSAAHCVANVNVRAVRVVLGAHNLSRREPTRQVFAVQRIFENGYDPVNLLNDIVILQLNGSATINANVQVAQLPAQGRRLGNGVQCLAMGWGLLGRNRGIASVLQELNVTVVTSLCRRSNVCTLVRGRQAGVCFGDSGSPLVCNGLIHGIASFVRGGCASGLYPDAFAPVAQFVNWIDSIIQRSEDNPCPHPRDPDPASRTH
Description: Inhibition of human neutrophil elastase (hydrolysis of MeOSuc-AAPV-pNA). Particulars: substrate MeOSuc-AAPV-pNA 0.3 mM, enzyme 10 nM, 37° C., pH 8; read-out: Human neutrophil elastase (hNE) IC50. The method, then: 2.2 Inhibition of Human Neutrophil Elastase
The ability of the peptides of the invention to inhibit the hydrolysis activity of human neutrophil elastase (Serva Electrophoresis, Germany) using the synthetic tetrapeptidic substrate MeOSuc-AAPV-pNA (Bachem, Switzerland) was determined as follows:
The above substrate (0.3 mM) and human neutrophil elastase (10 nM) were incubated at 37° C. with serial dilutions of the peptides (1% DMSO final) in assay buffer (50 mM Tris, pH 8, 300 mM NaCl, 0.01% Tween20). The release of pNA was followed by monitoring the change in absorbance at 405 nm for 30 minutes. Control assays with the same assay set-up as above, but without peptide, ran linearly. The dose-response data were fitted to the 4-parameter Hill equation providing the IC50 value using Graphpad (Prism 5).

Assay [3] deals with T3, human proteinase 3 (Homo sapiens, UniProt P24158).
T3 construct: purchased Elastin Products Company, USA
T3 sequence (P24158 28-248): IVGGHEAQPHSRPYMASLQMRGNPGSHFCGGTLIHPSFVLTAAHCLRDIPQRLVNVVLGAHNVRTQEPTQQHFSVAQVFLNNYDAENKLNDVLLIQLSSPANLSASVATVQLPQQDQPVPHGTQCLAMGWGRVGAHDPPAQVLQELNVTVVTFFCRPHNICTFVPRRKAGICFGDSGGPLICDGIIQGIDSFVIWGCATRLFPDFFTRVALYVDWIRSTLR
The assay is described as follows: Inhibition of human proteinase 3 (substrate Boc-Ala-Ala-Nva-SBzl). Particulars: for hNE/hPr3 selectivity: ratio of hPr3 IC50 to hNE IC50; for IC50: substrate Boc-Ala-Ala-Nva-SBzl 1 mM, enzyme 10 nM, 37° C., pH7.4, read-out: Human proteinase 3 (hPr3) IC50. The protocol: 2.4 Inhibition of Human Proteinase 3
The inactivation of human proteinase 3 (Elastin Products Company, USA) by the peptides of the invention using synthetic tripeptidic substrate Boc-Ala-Ala-Nva-SBzl (Elastin Products Company, USA) was determined as follows:
The above substrate (1 mM), 4,4′-dithiodipyridine (250 μM) and human proteinase 3 (10 nM) were incubated at 37° C. with serial dilutions of the peptides (0.5% DMSO final) in assay buffer (50 mM Tris, pH7.4, 150 mM NaCl, 0.01% Tween20). The reaction process was followed by monitoring the change in absorbance at 340 nm for 30 minutes. Control assays with the same assay set-up as above, but without peptide, ran linearly. The dose-response data were fitted to the 4-parameter Hill equation providing the IC50 value using Graphpad (Prism 5).

T1 sequence (P00772 27-266): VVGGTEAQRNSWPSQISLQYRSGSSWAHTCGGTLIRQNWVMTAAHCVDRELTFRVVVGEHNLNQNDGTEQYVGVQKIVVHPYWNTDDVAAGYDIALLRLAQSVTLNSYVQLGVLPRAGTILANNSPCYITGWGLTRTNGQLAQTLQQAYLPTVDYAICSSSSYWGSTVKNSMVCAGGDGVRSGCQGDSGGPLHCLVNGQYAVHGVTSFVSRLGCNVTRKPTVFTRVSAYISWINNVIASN

Turning to `CCCCCCCC[C@@H]1NC(=O)[C@@H]2C[C@@H]3CCCC[C@@H]3N2C(=O)[C@H]2CCCN2C(=O)[C@H]([C@@H](C)O)NC(=O)[C@H](CCCCN)NC(=O)[C@H](CCC(N)=O)NC(=O)[C@@H]2CCCN2C(=O)[C@@H]2CCCN2C(=O)[C@H]([C@@H](C)CC)NC(=O)[C@H](CO)NC(=O)[C@H](C)NC(=O)[C@H]([C@@H](C)O)NC(=O)[C@H](CCC(=O)O)NC1=O` [Example 6, Cyclo(-OctGly-Glu-Thr-Ala-Ser-Ile-Pro-Pro-Gln-Lys-Thr-^DPro-Oic-)] (cyclo([Gly(octyl)]ETASIPPQKT[dP][Oic])), the hNE/PPE selectivity in assay [1] is 321. Further, the IC50 in assay [1] amounted to 3.85 µM; in assay [2], 0.012 µM; in assay [3], 4.46 µM. Besides, the hNE/hPr3 selectivity in assay [3] is reported as 372.

Take `CCCCCCCC[C@@H]1NC(=O)[C@@H]2CCCN2C(=O)[C@H]2CCCN2C(=O)[C@H]([C@@H](C)O)NC(=O)[C@H](CCCCN)NC(=O)[C@H](CCC(N)=O)NC(=O)[C@@H]2CCCN2C(=O)CN(CCC(=O)O)C(=O)[C@H]([C@@H](C)CC)NC(=O)[C@H](CO)NC(=O)[C@H](C)NC(=O)[C@H]([C@@H](C)O)NC(=O)[C@H](CCC(=O)O)NC1=O` [Example 7, Cyclo(-OctGly-Glu-Thr-Ala-Ser-Ile-Nglu-Pro-Gln-Lys-Thr-^DPro-Pro-)] (cyclo([Gly(octyl)]ETASI[N(CH2CH2COOH)Gly]PQKT[dP]P)): the hNE/PPE selectivity in assay [1] is 295. For the same molecule, the concentration for half-maximal inhibition (IC50) in assay [1] was 3.92 µM; in assay [2], 0.0133 µM; in assay [3] it was 4.06 µM. Besides, in assay [3], the hNE/hPr3 selectivity is given as 305.

For the molecule `CCCCCCCC[C@@H]1NC(=O)[C@@H]2CCCN2C(=O)[C@H]2CCCN2C(=O)CC[C@H](Cc2ccc(O)cc2)NC(=O)[C@H](CCCCN)NC(=O)[C@H](CCC(N)=O)NC(=O)[C@@H]2CCCN2C(=O)[C@@H]2CCCN2C(=O)[C@H]([C@@H](C)CC)NC(=O)[C@H](CO)NC(=O)[C@H](C)NC(=O)[C@H]([C@@H](C)O)NC(=O)[C@H](CCC(=O)O)NC1=O` [Example 8, Cyclo(-OctGly-Glu-Thr-Ala-Ser-Ile-Pro-Pro-Gln-Lys-[H-γ^4-DiHTyr-OH]-^DPro-Pro-)] (cyclo([Gly(octyl)]ETASIPPQK[X3][dP]P)), in assay [1], the hNE/PPE selectivity is 91 and the IC50 was 1.81 µM. Moreover, the half-maximal inhibitory concentration (IC50) in assay [2] came out at 0.0198 µM. In assay [3], the hNE/hPr3 selectivity is 168 and the IC50 stood at 3.33 µM.

As to `CC[C@H](C)[C@@H]1NC(=O)[C@H](CO)NC(=O)[C@H](C)NC(=O)[C@H]([C@@H](C)O)NC(=O)[C@H](CCC(=O)O)NC(=O)[C@H](CCNC(=O)[C@@H](N)Cc2ccccc2)NC(=O)[C@@H]2CCCN2C(=O)[C@H]2CCCN2C(=O)[C@H](Cc2ccc(O)cc2)NC(=O)[C@H](CCCCN)NC(=O)[C@H](CCC(N)=O)NC(=O)[C@@H]2CCCN2C(=O)[C@@H]2CCCN2C1=O` [Example 9, Cyclo(-Dab(Phe)-Glu-Thr-Ala-Ser-Ile-Pro-Pro-Gln-Lys-Tyr-^DPro-Pro-)] (cyclo([Dab](Phe)ETASIPPQKY[dP]P)), in assay [1], the hNE/PPE selectivity is 215 and the 50% inhibitory concentration (IC50) came out at 3.72 µM. The half-maximal inhibitory concentration (IC50) in assay [2] turned out to be 0.0173 µM. Besides, in assay [3], the hNE/hPr3 selectivity was found to be 711 and the IC50 came out at 12.3 µM.

In the case of `CCCCCCCC[C@@H]1NC(=O)[C@@H]2CCCN2C(=O)[C@H]2CCCN2C(=O)[C@H]([C@@H](C)O)NC(=O)[C@H](CCCCN)NC(=O)[C@H](CCC(N)=O)NC(=O)[C@@H]2C[C@@H]3CCCC[C@@H]3N2C(=O)[C@@H]2CCCN2C(=O)[C@H]([C@@H](C)CC)NC(=O)[C@H](CO)NC(=O)[C@H](C)NC(=O)[C@H]([C@@H](C)O)NC(=O)[C@H](CCC(=O)O)NC1=O` [Example 10, Cyclo(-OctGly-Glu-Thr-Ala-Ser-Ile-Pro-Oic-GI n-Lys-Thr-^DPro-Pro-)] (cyclo([Gly(octyl)]ETASIP[Oic]QKT[dP]P)), in assay [1], the hNE/PPE selectivity turned out to be 4959 and the half-maximal inhibitory concentration (IC50) is 36.2 µM. Further, the half-inhibitory concentration (IC50) in assay [2] stood at 0.0073 µM. Further, in assay [3], the hNE/hPr3 selectivity is on record as over 13699 and the half-inhibitory concentration (IC50) was over 100 µM.

Turning to `CCCCCCCC[C@@H]1NC(=O)[C@@H]2CCCN2C(=O)[C@H]2CCCN2C(=O)CC[C@H]([C@@H](C)O)NC(=O)[C@H](CCCCN)NC(=O)[C@H](CCC(N)=O)NC(=O)[C@@H]2CCCN2C(=O)[C@@H]2CCCN2C(=O)[C@H]([C@@H](C)CC)NC(=O)[C@H](CO)NC(=O)[C@H](C)NC(=O)[C@H]([C@@H](C)O)NC(=O)[C@H](CCC(=O)O)NC1=O` [Example 11, Cyclo(-OctGly-Glu-Thr-Ala-Ser-Ile-Pro-Pro-Gln-Lys-[H-γ^4-DiHThr-OH]-^DPro-Pro-)] (cyclo([Gly(octyl)]ETASIPPQK[X2][dP]P)), in assay [1], the hNE/PPE selectivity worked out at 4217 and the IC50 came to 48.5 µM. The IC50 in assay [2] worked out at 0.0115 µM. Further, in assay [3], the hNE/hPr3 selectivity is recorded as 1835 and the 50% inhibitory concentration (IC50) amounted to 21.1 µM.

As for `CCCCCCCC[C@@H]1NC(=O)[C@H]2CCCN2C(=O)[C@H]2CCCN2C(=O)[C@H]([C@@H](C)O)NC(=O)[C@H](CCCCN)NC(=O)[C@H](CCC(N)=O)NC(=O)[C@@H]2CCCN2C(=O)[C@@H]2CCCN2C(=O)[C@H]([C@@H](C)CC)NC(=O)[C@H](CO)NC(=O)[C@H](C)NC(=O)[C@H]([C@@H](C)O)NC(=O)[C@H](CCC(=O)O)NC1=O` [Example 12, Cyclo(-OctGly-Glu-Thr-Ala-Ser-Ile-Pro-Pro-GI n-Lys-Thr-^DPro-^DPro-)] (cyclo([Gly(octyl)]ETASIPPQKT[dP][dP])), in assay [1], the hNE/PPE selectivity is over 6579 and the IC50 was over 100 µM. The IC50 in assay [2] worked out at 0.0152 µM. In assay [3], the hNE/hPr3 selectivity is recorded as over 6579 and the IC50 was over 100 µM.

Regarding `CCCCCCCC[C@@H]1NC(=O)[C@@H]2CCCN2C(=O)[C@H]2CCCN2C(=O)[C@H]([C@@H](C)O)NC(=O)[C@H](CCCCN)NC(=O)[C@H](CCC(N)=O)NC(=O)[C@@H]2CCCN2C(=O)[C@@H]2CCCN2C(=O)[C@H]([C@@H](C)CC)NC(=O)[C@H](CO)NC(=O)[C@H](C)NC(=O)[C@H]([C@@H](C)O)NC(=O)[C@H](Cc2ccccc2)NC1=O` [Example 13, Cyclo(-OctGly-Phe-Thr-Ala-Ser-Ile-Pro-Pro-Gln-Lys-Thr-^DPro-Pro-)] (cyclo([Gly(octyl)]FTASIPPQKT[dP]P)), in assay [1], the hNE/PPE selectivity was found to be 2119 and the IC50 came to 21.4 µM. For the same molecule, in assay [2], the IC50 was determined as 0.0101 µM. In addition, in assay [3], the hNE/hPr3 selectivity is given as over 9901 and the IC50 was over 100 µM.

On to `CCCCCCCC[C@@H]1NC(=O)[C@@H]2CCCN2C(=O)[C@H]2CCCN2C(=O)[C@H](Cc2ccc(O)cc2)NC(=O)[C@H](CCCCN)NC(=O)[C@H](CCC(N)=O)NC(=O)[C@@H]2CCCN2C(=O)[C@@H]2CCCN2C(=O)[C@H]([C@@H](C)CC)NC(=O)[C@H](CO)NC(=O)[C@H](C)NC(=O)[C@H]([C@@H](C)O)NC(=O)[C@H](CNC(=O)[C@@H](N)Cc2ccccc2)NC1=O` [Example 14, Cyclo(-OctGly-Dap(Phe)-Thr-Ala-Ser-Ile-Pro-Pro-Gln-Lys-Tyr-^DPro-Pro-)] (cyclo([Gly(octyl)][Dap](Phe)TASIPPQKY[dP]P)), for which, in assay [1], the hNE/PPE selectivity was determined as 367 and the half-inhibitory concentration (IC50) came out at 5.5 µM. Also, in assay [2], the IC50 is 0.015 µM. Moreover, in assay [3], the hNE/hPr3 selectivity is reported as 1733 and the IC50 worked out at 26 µM.
